One assay relates to platelets. The assay is described as follows: Cargo loading into platelets contacted with a non-specific GAG inhibitor. Format: cell-based. The following applies: platelets contacted with the inhibitor. The source says: The present invention is based, in part, on the discovery that cargo can be loaded in alpha granules and that this loading is not receptor-mediated. Instead, cargo loading into platelets, and specifically into their alpha granules, relies on the binding to glycosaminoglycans (GAG) in the alpha granules of the platelets.

Another assay relates to isolated platelets. The assay can be described thus: Platelet loading of Alexa647-labeled peptides, decrease in supernatant fluorescence. In kind it is cell-based. The following applies: for absorbance of supernatant, complete versus loaded measurements (loading into platelets): Alexa647-labeled peptides co-incubated with isolated platelets at 37° C. for one hour, FIG. 1A; for loading of attached cargo into platelets, loaded condition normalized to complete condition: Alexa647 as cargo, FIG. 1B. On the procedure:
Alexa647-labeled GAG-binding peptides, identified in FIG. 1A and FIG. 1B as PAL1 and PAL2 and an Alexa647-labeled control peptide (a charge-free ligand (CFL) which served as a negative control), were tested for their binding affinity for glycosaminoglycans, such as chondroitin sulfate, and their abilities to enter platelets.
Alexa647-labeled peptides or Alexa647 alone were co-incubated with isolated platelets at 37° C. for one hour to allow for platelet loading. The respective platelet-loading ability was indicated by a decrease in fluorescence in supernatant following the incubation. For controls, identical experiments were performed without the incubation period (noted as “complete” in the figure). Platelets following co-incubation were then centrifuged at 800 g for 10-minutes to separate platelets from supernatant (noted as “loaded” in the figure).
FIG. 1B represents the data in FIG. 1A normalized for each peptide experiment, i.e., normalization of a loaded condition to its complete condition.

Assay [1] can be described thus: Affinity chromatography of peptides. The note with it: FIG. 4. In kind it is binding. On the procedure:
Additionally, the binding affinities for the two illustrative GAG-binding peptides and the CFL to heparan sulfate (HS) was determined using affinity chromatography.

Assay [2] deals with alpha granules of platelets. The assay can be described thus: Confocal microscopy of Alexa647-labeled peptides with PF4 alpha granule marker. In kind it is cell-based. The following applies: for loading of attached cargo into alpha granules of platelets (Alexa647 intensities for each ROI): ROIs selected on PF4 intensity, FIG. 2B. On the procedure: To confirm that the Alexa647-labeled GAG-binding peptides were loaded into alpha granules of platelets, confocal microscopy was used. The platelets that were centrifuged in the experiments of FIG. 1A and FIG. 1B, were fixed in 2% paraformaldehyde and settled onto glass coverslips. After permeabilization, immunofluorescence staining was performed against PF4, which is a marker for alpha granules of platelets. Platelets were stained with Alexa568-secondary antibody. Images were collected through a Nikon-A1 laser-scanning microscope equipped with a 60× oil objective lens.
FIG. 2A are representative images with PF4 staining shown in red (left column) and the Alexa647 signal (from the free Alexa647, Alexa647-labeled GAG-binding peptide, or Alexa647-labeled CFL; middle column) shown in purple. Images were only adjusted for brightness and contrast for display. n>5 images were acquired for each experiment and regions of interest (ROIs) were selected based on PF4 intensity.
The Alexa647 intensities for each ROI were measured using ImageJ and plotted in box and whisker graph using Prism 8.

“Also recorded” adds a separate entry of the source. Where no end group is shown, it is not given here.

Take `Cc1cc(N)c2cc(NC(=O)Nc3ccc4nc(C)cc(N)c4c3)ccc2n1` [Surfen]: the “amount of cargos loaded into platelets” value in the assay with platelets is “reduced amounts of cargos are loaded into platelets”.

With “CFL: control peptide, a charge-free ligand, SEQ ID NO: 14, negative control (EGGIWFPYGGF) [reference compound]”, in the assay with isolated platelets, the “absorbance of supernatant, complete versus loaded measurements (loading into platelets)” value is “did not change” and the “loading of attached cargo into platelets, loaded condition normalized to complete condition” value is recorded as “unable to direct loading of the cargo into platelets”. Moreover, the “binding to heparan sulfate (HS)” value in assay [1] was “did not bind to HS”. In addition, the “loading of attached cargo into alpha granules of platelets (Alexa647 intensities for each ROI)” value (from here on “loading … (Alexa647 intensities for each ROI)”) in assay [2] is given as “do not load into platelets”. Also, the “colocalization of alpha granule marker PF4 and Alexa647 signal” value in assay [2] (merged confocal images, FIG. 2A) is reported as “Co-localization was not observed”.

As to “ERRIWFPYRRF (SEQ ID NO: 1) (also: Alexa647 label) [PAL1]”, in the assay with isolated platelets, the “absorbance of supernatant, complete versus loaded measurements (loading into platelets)” value is “decrease in absorbance” and the “loading of attached cargo into platelets, loaded condition normalized to complete condition” value is listed as “facilitates loading of an attached cargo into platelets”. The “loading … (Alexa647 intensities for each ROI)” value in assay [2] is given as “facilitates loading of an attached cargo into alpha granules of platelets”.

On to “RFRWPYRIREF (SEQ ID NO: 2) (also: Alexa647 label) [PAL2]”, for which, in the assay on isolated platelets, the “absorbance of supernatant, complete versus loaded measurements (loading into platelets)” value is “decrease in absorbance” and the “loading of attached cargo into platelets, loaded condition normalized to complete condition” value is reported as “facilitates loading of an attached cargo into platelets”. The “relative affinity for HS, PAL2 versus PAL1” value in assay [1] is recorded as “greater affinity for HS than PAL′; also recorded: binds HS tighter than PALL”. The “loading … (Alexa647 intensities for each ROI)” value in assay [2] was “facilitates loading of an attached cargo into alpha granules of platelets”.

These data come from patent US20220218833A1, “PLATELET-FACILITATED DELIVERY OF THERAPEUTIC COMPOUNDS” (CSTS Health Care Inc., priority 2019, published 2022).
